Test results as given in ChEMBL document CHEMBL1147261, “Xanthanolides, germacranolides, and other constituents from Carpesium longifolium” (J Nat Prod, 2003).
≈ marks a conversion by molar mass, not a printed value.

How the values were obtained:
SMMC-7721 = assay: Cytotoxicity against human SMMC7721 cells by MTT assay; format: functional, cell-based
[1] = Cytotoxicity against human HO8910 cells by MTT assay; format: functional, cell-based; conditions: HO-8910

Row | SMILES | IC50 (SMMC-7721) | IC50 [1]
1 | COc1ccc(C2CC(=O)c3c(O)cc(OC)cc3O2)cc1 (stereo not drawn) | > 200 µg/mL | > 200 µg/mL
2 | CC[C@]1(O)C[C@H]2CN(CCc3c([nH]c4ccccc34)[C@@](C(=O)OC)(c3cc4c(cc3OC)N(C=O)[C@H]3[C@@](O)(C(=O)OC)[C@H](OC(C)=O)[C@]5(CC)C=CCN6CC[C@]43[C@@H]65)C2)C1 [VINCRISTINE] | 20.7 µg/mL (≈ 25.1 µM) | 1.37 µg/mL (≈ 1.66 µM)
3 | C=C1C(=O)O[C@@H]2C3O[C@]3(C)CC/C=C(\C)CC[C@@H]12 (stereo partly drawn) | 4.2 µg/mL (≈ 16.9 µM) | 1.37 µg/mL (≈ 5.52 µM)
4 | C/C1=C\CC[C@@]2(C)O[C@@H]2[C@H]2OC(=O)[C@@H](C)[C@@H]2CC1 [11BETA,13-DIHYDRO-PARTHENOLIDE] | > 200 µg/mL | 158 µg/mL (≈ 631 µM)
